Assay results taken from US20160022751A1, “NOVEL COMPOSITION FOR TREATING ALZHEIMER'S DISEASE AND IMPROVING COGNITIVE FUNCTION OF ALZHEIMER'S PATIENTS” (GANGNEUNG-WONJU NATIONAL UNIVERSITY INDUSTRY ACADEMY …, priority 2014, published 2016).

Assays:
SRA [1] = assay: In vivo SRA mRNA expression in brain tissues (RT-PCR); conditions: mice administrated with Rg3 (FIG. 24A)
Procedure: Total RNA extracts from HMO6 cells or perfused brain tissue were prepared using the Trizol method (Invitrogen). cDNA was synthesized from RNA by reverse transcription of 1 μg total RNA using the Improm-II reverse transcription system (Promega, Wis., USA) and oligo dT primers in a total volume of 20 μl. PCR amplification was performed using the primers listed in Table 1 (Bioneer, Korea). qPCR reactions were run on a Rotor-Gene 6000 (Corbett Research, Sydney, Australia) using a SensiMix™ SYBR Hi-ROX Kit (Bioline, UK) in 20 μl reaction mixtures. Each real-time-PCR master mix contained 10 μl 2× enzyme master mix, 7 μl RNase free water, 1 μl of each primer (10 pM each), and 1 μl diluted template. The PCR was performed with an initial pre-incubation step for 15 min at 95° C., followed by 45 cycles of 95° C. for 15 s, annealing at 52° C. for 15 s, and extension at 72° C. for 10 s. […] Relative sample expression levels were calculated using Rotor-Gene 6000 Series Software 1.7 and were expressed relative to β-actin for mice or glyceraldehyde 3-phosphate dehydrogenase for HMO6 cells and corrected for between-run variability. Data for the experimental samples are expressed as a percentage of the internal control gene. […]

p38 = p38 phosphorylation in HMO6 cells (western blot); format: cell-based, human; conditions: Rg3 5 μg/ml, western blot (FIG. 18)
Procedure: FIG. 18 is a photograph showing a result of western blot analysis for confirming the degree of phosphorylation of ERK (extracellular-regulated kinase) and p38, according to an embodiment of the present invention. Depending on the presence of Rg3, the levels of phospho-ERK and phospho-p38 protein were investigated by immune-blotting. HMO6 cells were treated with Rg3 (5 μg/ml) after plated on 60 mm cell culture plates and western blot analysis was performed after the cells were placed in phenol red negative/sere-free DMEM medium for 1 h. The western blot analysis was carried out three times independently.
HMO6 cells were lysed in 1% RIPA buffer containing protease and phosphatase inhibitors (Roche, Mannheim, Germany) and whole-cell lysates were separated on 10% sodium dodecyl sulfate-polyacrylamide gel electrophoresis. After electrophoresis, the proteins were transferred to polyvinylidene fluoride membranes, and the membranes were blocked with 5% skim milk in Tris-buffered saline solution containing 0.1% Tween-20. The membranes were then immunoblotted with primary antibodies, anti-phospho-p38, anti-p38, anti-phospho-ERK, anti-ERK, and anti-f3-actin (Santa Cruz Biotechnology, USA), followed by incubation with horseradish peroxidase-conjugated anti-rabbit or anti-mouse secondary antibodies (Stressgen, USA). Blots were developed using an enhanced chemiluminescent solution (Thermo, USA).

NEP = NEP mRNA expression in HMO6 human microglial cells (qPCR); format: cell-based
Procedure: (§1) HMO6 human microglial cell line was kindly provided by Dr. SU Kim (Chung-Ang University, Korea). HMO6 cells were grown in Dulbecco's Modified Eagle's Medium (DMEM) (Hyclone, USA) supplemented with 10% fetal bovine serum, 100 U/ml penicillin, and 100 μg/ml streptomycin (Invitrogen, USA). Cultures were maintained under 5% CO2 at 37° C. in tissue culture flasks. Cells were grown to >90% confluency and subjected to no more than 20 cell passages. Medium was changed every 2-3 days. Subconfluent cells were harvested and seeded at a density of 5×10^5 cells or 5×10^6 cells in poly-L-lysine-coated 35-mm or 60-mm culture plates. […]
(§2) Total RNA extracts from HMO6 cells or perfused brain tissue were prepared using the Trizol method (Invitrogen). cDNA was synthesized from RNA by reverse transcription of 1 μg total RNA using the Improm-II reverse transcription system (Promega, Wis., USA) and oligo dT primers in a total volume of 20 μl. […] Relative sample expression levels were calculated using Rotor-Gene 6000 Series Software 1.7 and were expressed relative to β-actin for mice or glyceraldehyde 3-phosphate dehydrogenase for HMO6 cells and corrected for between-run variability. Data for the experimental samples are expressed as a percentage of the internal control gene. […]

SRA [2] = assay: SRA mRNA expression in HMO6 human microglial cells (qPCR); format: cell-based; conditions: Rg3-treated HMO6 cells (FIG. 14)
Procedure: as §1, §2

Aβ42 = assay: Morris water maze test in Aβ42-infused animals; format: in vivo; conditions: Aβ42 rats administered Rg3 (FIG. 25)
Procedure: Male BALB/c mice (10 weeks old) were purchased from Samtaco (Korea), and were adapted to laboratory conditions (temperature: 20±2° C., relative humidity: 50%, light/dark cycle: 12 h) for 1 week. Five-week-old male Sprague-Dawley rats were obtained from Daehan-Biolink (Korea) for learning and memory testing. The animals (n=5/group) were maintained at a constant temperature (23±2° C.), relative humidity, 55±10%, and 12-h light/dark cycle. The animals were fed a standard rodent chow and purified water ad libitum. Lyophilized Aβ42 (0.5 mg, Bachem Torrance, USA) was resuspended in PBS (pH 7.4) by shaking for 7 days at room temperature to prepare the fibrillar-aggregated Aβ42 (fAβ42). At 10 weeks of age, mice were anesthetized, and 1 μl fAβ42 (350 μM stock concentration) was stereotaxically injected unilaterally into the parietal cortex (anterior 1.7 mm, lateral 1 mm, and ventral 1 mm to the bregma above the hippocampus within 1 min) (Mohajeri et al., J. Biol. Chem., 277: 35460-35465, 2002)
The present inventor performed learning and memory tests using rats in order to investigate whether Rg3 can ameliorate symptoms of Alzheimer's model animals in deed. […] The latency time of stay in the light room from lights-on was recorded following an electric shock (1 mA for 2 s) in the dark compartment. […] The mean time spent to escape onto the platform was recorded.

CC(C)=CCC[C@](C)(O)[C@H]1CC[C@]2(C)[C@@H]1[C@H](O)C[C@@H]1[C@@]3(C)CC[C@H](O[C@@H]4O[C@H](CO)[C@@H](O)[C@H](O)[C@H]4O[C@@H]4O[C@H](CO)[C@@H](O)[C@H](O)[C@H]4O)C(C)(C)[C@@H]3CC[C@]12C [ginsenoside Rg3]
expression of SRA mRNA in brain tissues (SRA [1]): increased
phosphorylation of p38 (p38): promoted the phosphorylation
NEP mRNA (NEP; HMO6 cells, Aβ42 (5 μM) and/or Rg3 (2.5 or 5 μg/ml), 24 h (FIG. 15D)): increased significantly
NEP mRNA expression (NEP; Rg3-treated HMO6 cells (FIG. 14)): dose-dependently increased
SRA mRNA expression (SRA [2]): dose-dependently increased
learning and memory functions, Morris water-maze (Aβ42): maintained learning and memory functions at 4-5 weeks
